# Measurements reported in patent US20050038248A1, “Chemotherapeutic agents” (priority 2001, published 2005).
# Where two headings read alike, the source gives them in different places.
# Key:
# Type in all cases: cell-based
# [1] = tested on: rat aorta ring; experiment: Rat aorta assay for angiogenesis inhibition (rat aorta ring model); details: for inhibition at 0.5 µg/mL: 0.5 μg/mL; for inhibition at 1 µg/mL: 1 μg/mL
# Source text: Rat Aorta Assay for Angiogenesis Inhibition
# The rat aorta ring model based on that described by Nicosia and Ottinetti (Nicosia, R. F. et al. Lab. Investigation 63: 115, 1990; Nicosia, R. F. et al. Cell. Dev. Biol. 26: 119-128, 1990), was used throughout the assay.
# The agarose was made up as a 1.5% solution in distilled water and brought to the boil to form a clear solution which was poured into sterile 9 cm petri dishes, covered and allowed to cool and set.
# Maintaining sterile conditions, agarose rings were obtained by punching two concentric circles, with sterile10 and 17 mm hole punches, respectively, in the agarose gel. Using sterile forceps, the rings are removed and placed, three per well in each of the 6-well plates.
# The MEM was prepared according to manufacturer's directions, but before filtering through a 0.22 μm filter, HEPES and L-glutamine were added to give 10 mM and 1 mM concentrations respectively with pH adjusted to 7.4. Eight hundred mL of this medium were filtered through a 0.2 μm filter along with the antibiotics (50 mg/L Gentamycin sulphate and 2.5 mg/L Amphotericin B) and 200 mL of FCS (to give 20%) to yield one litre of medium.
# The aorta was removed from a 3-4 month male Copenhagen rat and transferred to a dissecting dish where it was cleaned and carefully stripped of the fibroadipose tissue surrounding it. Rings of 0.5 mm were cut, using a fresh scalpel blade, from the length of the aorta. These were kept under sterile conditions in a biohazard hood where they were washed 12 times with MEM.
# Before transferring the aortic rings to the culture plate, the bottom of each agarose well was coated with 150 μL of clotting fibrinogen. Fibrinogen was made up as a 3 mg/mL solution in MEM, while thrombin made up in distilled water to give a concentration of 50 U/mL. The fibrinogen (1 mL) and the thrombin (20 μL) reacted within 30 sec to form a solid gel.
# The aortic rings were transferred to the 6-well plates, with one ring placed in the center of each agarose well. Fresh fibrinogen/thrombin was made up as before and 150 μL was used to seal in each aortic ring. The gels were rested for approximately 2 hours before the medium was added.
# […] The compounds were made up as 6 mg/mL solution in water or DMSO. The test solutions were added to each well with the medium.
# Six mL of MEM were carefully added to each of three wells to become the controls. MEM, along with the test compounds were added to the remaining wells and all were covered and transferred to the CO2 Incubator at 37° C., where they were kept for the next 14 days.
# However, by the fifth day, there were noticeable changes in the tissue. Micro-vessels were seen and scored. We have based the scoring method on that used by Liekens et al. (Liekens, S., et al. Oncol. Res. 9: 173-181, 1997) in which 0 meant no vessels and 10 meant maximum vessels; the score is then converted into a percentage inhibition of vessel growth.
# [2] = tested on: HeLa cervical adenocarcinoma (epithelial) cells; experiment: Cytotoxicity assay (WST-1); details: 100 μM test compound, 72 hours
# Protocol: (§1) HeLa cervical adenocarcinoma (epithelial) cells were cultured in the presence of 100 μM of test compound for 72 hours and cell viability was measured using the WST-1 tetrazolium salt (cleaved to formazan by mitochondrial respiratory chain enzymes, which are only active in viable cells). The absorbance of the dye solution was measured at 450 nm. Controls included cells alone, 0.05% NP-40 plus cells (100% cytotoxicity control) and each of the compound vehicles alone, DMSO or water at the same final concentration in medium as the compound in test wells. % Cytotoxicity was calculated as follows: % cytotoxicity=100×(1-ODtest compound/ODcells alone).
# [3] = tested on: HUVEC; experiment: Growth inhibition assay (crystal violet); details: HUVEC proliferation, 72 h
# Protocol: HUVEC (1.5×10^3) are plated in a 96-well plate in 100 μL of EBM-2 (Clonetic # CC3162). After 24 h (day 0), the test compound (100 μL) is added to each well at twice the desired concentration (5-7 concentration levels) in EBM-2 medium. On day 0, one plate is stained with 0.5% crystal violet in 20% methanol for 10 minutes, rinsed with water, and air-dried. The remaining plates are incubated for 72 h at 37° C. After 72 h, plates are stained with 0.5% crystal violet in 20% methanol, rinsed with water and air-dried. The stain is eluted with 1:1 solution of ethanol:0.1M sodium citrate (including day 0 plate), and absorbance is measured at 540 nm with an ELISA reader (Dynatech Laboratories). Day 0 absorbance is subtracted from the 72 h plates and data is plotted as percentage of control proliferation (vehicle treated cells). IC50 (drug concentration causing 50% inhibition) is calculated from the plotted data.
# [4] = tested on: HUVEC; experiment: Cell migration assay (Boyden chamber); details: Homo sapiens, 5 h incubation
# Protocol: Migration is assessed using the 48-well Boyden chamber and 8 μm pore size collagen-coated (10 μg/mL rat tail collagen; Collaborative Laboratories) polycarbonate filters (Osmonics, Inc.). The bottom chamber wells receive 27-29 μL of DMEM medium alone (baseline) or medium containing chemo-attractant (bFGF, VEGF or Swiss 3T3 cell conditioned medium). The top chambers receive 45 μL of HUVEC cell suspension […] prepared in DMEM+1% BSA with or without test compound. After 5 h incubation at 37° C., the membrane is rinsed in PBS, fixed and stained in Diff-Quick solutions. The filter is placed on a glass slide with the migrated cells facing down and cells on top are removed using a Kimwipe. The testing is performed in 4-6 replicates and five fields are counted from each well. Negative unstimulated control values are subtracted from stimulated control and drug treated values and data is plotted as mean migrated cell±S.D. IC50 is calculated from the plotted data.
# [5] = Cytotoxicity assay (WST-1); details: human, HeLa cervical adenocarcinoma (epithelial) cells, 100 μM test compound
# Protocol: as §1
# [6] = tested on: HUVEC; experiment: Cord formation assay on matrigel; details: Homo sapiens, 24 h incubation
# Protocol: Matrigel (60 μL of 10 mg/mL) is placed in each well of an ice-cold 96-well plate. The plate is allowed to sit at room temperature for 15 minutes then incubated at 37° C. for 30 minutes to permit the matrigel to polymerize. In the mean time, HUVEC are prepared in EGM-2 (Clonetic # CC3162) at a concentration of 2×10^5 cells/mL. The test compound is prepared at twice the desired concentration (5 concentration levels) in the same medium. Cells (50 μL) and 2×drug […] is mixed and 200 μL of this suspension are placed in duplicate on the polymerized matrigel. After 24 h incubation, triplicate pictures are taken for each concentration using a Bioquant Image Analysis system. Drug effect (IC50) is assessed compared to untreated controls by measuring the length of cords formed and number of junctions.
# [7] = Rattus norvegicus, 120 h, 4 μg/mL, day 5, read-out: Growth Inhibition % (Day)
# [8] = Rattus norvegicus, 120 h, day 5, read-out: Growth Inhibition % (Day)
# [9] = Rattus norvegicus, 120 h, 10 μg/mL, day 5, read-out: Growth Inhibition % (Day)
# [10] = Rattus norvegicus, 288 h, day 12, read-out: Growth Inhibition % (Day)
# [11] = Rattus norvegicus, 288 h, 4 μg/mL, day 12, read-out: Growth Inhibition % (Day)
# [12] = Rattus norvegicus, 288 h, 10 μg/mL, day 12, read-out: Growth Inhibition % (Day)
# [13] = Rattus norvegicus, 168 h, 10 μg/mL, day 7, read-out: Growth Inhibition % (Day)
# [14] = Rattus norvegicus, 168 h, day 7, read-out: Growth Inhibition % (Day)
# [15] = Rattus norvegicus, 168 h, 4 μg/mL, day 7, read-out: Growth Inhibition % (Day)
smiles,measurement,setting,value
"CC(C)c1cccc(C(C)C)c1NC(=O)c1ccccc1S(=O)(=O)Nc1c(C(C)C)cccc1C(C)C [Example 1, N-(2,6,-Diisopropylphenyl)-2-(2,6-diisopropylphenylsulfamoyl)-benzamide]",Growth Inhibition % (Day),"[1]; 4 μg/mL, day 7",100 (7) %
same,Growth Inhibition % (Day),"[1]; 4 μg/mL, day 14",100 (14) %
same,Growth Inhibition % (Day),"[1]; 20 μg/mL, day 7",98 (7) %
same,Growth Inhibition % (Day),"[1]; 20 μg/mL, day 14",98 (14) %
same,Growth Inhibition % (Day),"[1]; 50 μg/mL, day 7",100 (7) %
same,Growth Inhibition % (Day),"[1]; 50 μg/mL, day 14",100 (14) %
same,% Cytotoxicity,[2],94%
same,IC50,[3],2.4 ± 0.5 µM
"O=C(Nc1ccccc1)c1ccccc1S(=O)(=O)Nc1ccccc1 [Example 2, N-Phenyl-2-phenylsulfamoylbenzamide]",inhibition at 4 µg/mL,[1]; [7],50%
same,inhibition at 20 µg/mL,"[1]; Rattus norvegicus, 120 h, 20 μg/mL, day 5, read-out: Growth Inhibition % (Day)",90%
same,inhibition at 50 µg/mL,"[1]; Rattus norvegicus, 120 h, 50 μg/mL, day 5, read-out: Growth Inhibition % (Day)",70%
"COc1ccc(NS(=O)(=O)c2ccccc2NC(=O)c2ccncc2)cc1 [Example 3, N-[2-(4-Methoxyphenylsulfamoyl)-phenyl]-isonicotinamide]",IC50,[4],0.68 ± 0.17 µM
same,inhibition at 0.5 µg/mL,[1]; [8],100%
same,inhibition at 1 µg/mL,[1]; [8],100%
same,inhibition at 4 µg/mL,[1]; [7],100%
same,inhibition at 10 µg/mL,[1]; [9],100%
same,inhibition at 0.5 µg/mL,[1]; [10],60%
same,inhibition at 1 µg/mL,[1]; [10],100%
same,inhibition at 4 µg/mL,[1]; [11],100%
same,inhibition at 10 µg/mL,[1]; [12],100%
same,"cytotoxicity at 72 hours, 100 µM",[5],92%
same,IC50,[6],0.48 ± 0.27 µM
same,IC50,[3]; Homo sapiens,0.29 ± 0.22 µM
"COc1ccc(NS(=O)(=O)c2ccccc2NC(=O)c2ccc([N+](=O)[O-])cc2)cc1 [Example 4, N-[2-(4-Methoxyphenylsulfamoyl)-phenyl]-4-nitrobenzamide]","cytotoxicity at 72 hours, 100 µM",[5],56%
"COc1ccc(NS(=O)(=O)c2ccccc2NC(=O)c2ccc(F)cc2)cc1 [Example 5, N-[2-(4-Methoxyphenylsulfamoyl)-phenyl]-4-fluorobenzamide]",inhibition at 10 µg/mL,[1]; [9],80%
same,inhibition at 10 µg/mL,[1]; [12],70%
same,"cytotoxicity at 72 hours, 100 µM",[5],91%
same,IC50,[6],36.1 ± 9.4 µM
same,IC50,[3]; Homo sapiens,7.1 ± 2.7 µM
"CC(C)c1cccc(C(C)C)c1NC(=O)c1ccccc1C(=O)Nc1c(C(C)C)cccc1C(C)C [Example 6, N,N′-Bis-(2,6-diisopropylphenyl)-phthalamide]",inhibition at 10 µg/mL,[1]; [13],10%
"COc1ccc(S(=O)(=O)Nc2ccccc2C(=O)Nc2ccncc2)cc1 [Example 8, 2-(4-Methoxybenzenesulfonylamino)-N-pyridin-4-yl-benzamide]",inhibition at 10 µg/mL,[1]; [9],80%
same,inhibition at 10 µg/mL,[1]; [12],30%
same,"cytotoxicity at 72 hours, 100 µM",[5],84%
"COc1ccc(NS(=O)(=O)c2ccccc2S(=O)(=O)Nc2ccc(OC)cc2)cc1 [Example 12, Benzene-1,2-disulfonic acid bis-[(4-methoxyphenyl)-amide]]",IC50,[4],2.3 µM
same,inhibition at 10 µg/mL,[1]; [12],20%
same,IC50,[6],> 50 µM
same,IC50,[3]; Homo sapiens,> 75 µM
"COc1ccc(NS(=O)(=O)c2ccccc2NS(=O)(=O)c2cccs2)cc1 [Example 13, Thiophene-2-sulfonic acid [2-(4-methoxyphenylsulfamoyl)-phenyl]-amide]",IC50,[4],0.62 ± 0.25 µM
same,inhibition at 0.5 µg/mL,[1]; [14],90%
same,inhibition at 1 µg/mL,[1]; [14],100%
same,inhibition at 4 µg/mL,[1]; [15],100%
same,inhibition at 10 µg/mL,[1]; [13],100%
same,inhibition at 0.5 µg/mL,[1]; [10],90%
same,inhibition at 1 µg/mL,[1]; [10],100%
same,inhibition at 4 µg/mL,[1]; [11],100%
same,inhibition at 10 µg/mL,[1]; [12],100%
same,IC50,[6],0.41 ± 0.03 µM
same,IC50,[3]; Homo sapiens,0.28 ± 0.22 µM
"COc1ccc(N(Cc2ccccc2)S(=O)(=O)c2ccccc2C(=O)Nc2ccncc2)cc1 [Example 15, 2-[Benzyl-(4-methoxyphenyl)-sulfamoyl]-N-pyridin-4-yl-benzamide]",inhibition at 4 µg/mL,[1]; [15],90%
COc1ccc(NS(=O)(=O)c2ccccc2C(=O)Nc2ccncc2)cc1 [Example 16],Growth Inhibition % (Day),"[1]; 10 μg/mL, day 7",70 (7) %
same,Growth Inhibition % (Day),"[1]; 10 μg/mL, day 12",10 (12) %
